Values of other authors as cited in US20150030666A1, “ADHESIVE SKIN PATCH” (KM TRANSDERM LTD., priority 2011, published 2015).

Conditions: in vivo, po

- half-life in blood: about 50 hr
SMILES: O=C(O[C@H]1CN2CCC1CC2)N1CCc2ccccc2[C@@H]1c1ccccc1 [solifenacin succinate, (3R)-1-azabicyclo[2.2.2]oct-3-yl(1S)-1-phenyl-3,4-dihydroisoquinoline-2(1H)-carboxylate]
